In article PMC11500415, “Chemical inhibition of stomatal differentiation by perturbation of the master-regulatory bHLH heterodimer via an ACT-Like domain” (Nature Communications, 2024):
“And” between values parts separate entries of the source, which are not always exact repeats. Equal values may be shown once. Read-outs that look alike come from different tables or passages of the source.

What was measured:
SPCH = target: T1, SPCH (Arabidopsis thaliana, UniProt Q700C7); test: BLI direct binding; design: species or system A. thaliana
T1 construct: ΔNSPCH (98-364); made in house; host or cells: E. coli BL21
T1 sequence (Q700C7 98-364): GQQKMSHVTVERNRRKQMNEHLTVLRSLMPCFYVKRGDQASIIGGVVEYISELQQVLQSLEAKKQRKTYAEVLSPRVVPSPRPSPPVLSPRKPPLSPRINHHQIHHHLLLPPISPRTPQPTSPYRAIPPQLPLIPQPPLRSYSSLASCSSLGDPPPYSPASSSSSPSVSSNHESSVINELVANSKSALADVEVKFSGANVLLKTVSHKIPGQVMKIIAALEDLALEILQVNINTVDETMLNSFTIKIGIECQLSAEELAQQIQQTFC
Description: (§1) A. thaliana SCRM (1-494), ΔNSPCH (98-364), MUTE (1-202), ΔNFAMA (190-414), MUTEΔC (1-114), MUTER133A_R134A, MUTEE162A_E163A, MUTER133A_R134A_E162A_E163A, SCRM-ACTL (405-494), MUTE-ACTL (114-202), SPCH-ACTL (285-364), FAMA-ACTL (306-414), MUTE_ACTLR133A_R134A, MUTE_ACTLE162A_E163A, MUTE_ACTLR133A_R134A_E162A_E163A were cloned into pGEX-4T-1 vector with an N-terminal GST tag and a thrombin cleavage sequence. For protein expression, the constructs were transformed into E. coli strain BL21. For each transformant, a single colony was selected and incubated in 10 ml LB liquid media. The overnight-incubated E. coli suspensions were transferred to 1 L LB medium and incubated at 37 °C for around 2 h until the OD600 reached 0.4–0.6. The isopropyl β-D-1-thiogalactopyranoside ([…] of final concentration) was added to the cultures and the strains were incubated at 22 °C for a further 18 h. GST-fused proteins were purified using glutathione agarose resin. The soluble portion of the cell lysate was loaded onto a GST-Sepharose column. Nonspecifically bound proteins were removed by washing the column with 20 mM Tris pH 8.0, 200 mM NaCl. The bound GST-fused protein was eluted with 10 mm glutathione and 20 mM Tris pH 8.0, 200 mM NaCl. The GST-fused proteins were exchanged with phosphate-buffered saline buffer, and then the solution was treated with 50 μg of thrombin for 10–12 h at 16 ^οC. The GST portion of the protein was cleaved during thrombin digestion, and then the whole solution was reloaded onto the glutathione S-transferase column to obtain pure protein. The purified proteins were further purified by gel filtration on a Superdex-200 (GE) column using fast protein liquid chromatography and phosphate buffer (pH 7.2) as the eluent. The purity of the protein was checked by SDS-PAGE. For detailed lists of oligo DNA and plasmid information, see Supplementary Tables 5, 6, respectively.
(§2) The binding affinities of SCRM to MUTE / MUTER133A_R134A / MUTEE162A_E163A / MUTER133A_R134A_E162A_E163A in presence and absence of Stomidazolone (3) and its analogues (AYSJ1059 (5) and AYSJ1061 (6)), and Stomidazolone / AYSJ1059 / AYSJ1061 interactions with GST-tagged SCRM, MUTE, SPCH, FAMA, MUTE ΔACTL, MUTE_ACTL, SCRM_ACTL, SPCH_ACTL and FAMA_ACTL, MUTER133A_134A, MUTEE162A_E163A, MUTER133A_R134A_E162A_E163A were measured using the Octet Red96 system (ForteBio, Pall Life Sciences) following the manufacturer’s protocols. The optical probes coated with anti-GST were first loaded with 500 nM GST tagged proteins before kinetic binding analyses. The experiment was performed in 96-well plates maintained at 30 °C. Each well was loaded with 200 μL reaction volume for the experiment. The binding buffer used in these experiments contained 1× PBS supplemented with 2% DMSO, 0.02% Tween20. […] There was no binding of the analytes to the unloaded probes as shown by the control wells. Binding kinetics to all seven concentrations of the analytes were measured simultaneously using default parameters on the instrument. The data were analyzed using the Octet data analysis software. The association and dissociation curves were fit with the 1:1 homogeneous ligand model. The kobs (observed rate constant) values were used to calculate Kd, with steady-state analysis of the direct binding. See Supplementary Table 3 for details.

MUTE = target: T2, MUTE (Arabidopsis thaliana, UniProt Q9M8K6); test: BLI direct binding; design: species or system A. thaliana
T2 construct: MUTE (1-202); made in house; host or cells: E. coli BL21
T2 sequence (Q9M8K6 whole entry): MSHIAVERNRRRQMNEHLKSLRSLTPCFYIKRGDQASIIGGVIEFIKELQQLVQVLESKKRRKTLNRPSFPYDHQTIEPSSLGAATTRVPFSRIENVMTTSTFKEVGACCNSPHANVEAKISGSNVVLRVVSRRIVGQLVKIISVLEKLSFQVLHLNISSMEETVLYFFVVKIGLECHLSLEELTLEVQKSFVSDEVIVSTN
Description: as §1, §2

[1] = SPCH, Conc. (µM) 3.12, rep-1, rep-2
[2] = SPCH, Conc. (µM) 6.25, rep-1, rep-2
[3] = SPCH, Conc. (µM) 12.5, rep-1, rep-2
[4] = SPCH, Conc. (µM) 50, rep-1, rep-2
[5] = SPCH, Conc. (µM) 100, rep-1, rep-2
[6] = SPCH, Conc. (µM) 200, rep-1, rep-2

Compound: O=C1C(c2ccccc2)=NC(NS(=O)(=O)c2ccccc2)(c2ccccc2)N1S(=O)(=O)c1ccccc1 (stereo not shown) [Stomidazolone]
- Kd (SPCH; BLI steady state, SPCH, read-out: KD (SS)): 85.2 ± 6.8 µM
- Kd (SPCH; BLI, SPCH, read-out: KD): 75.6 ± 0.7 µM
- kdis (SPCH; SPCH loaded on Anti-GST sensor, fit per sensor, Stomid Conc. (mM) 200-3.12, rep-1, rep-2): 0.319 s⁻¹ and 0.323 s⁻¹ and 0.32 s⁻¹ and 0.325 s⁻¹ and 0.33 s⁻¹ and 0.326 s⁻¹
- kon (SPCH; SPCH loaded on Anti-GST sensor, fit per sensor, Stomid Conc. (µM) 200-3.12, rep-1, rep-2): 4280 M⁻¹ s⁻¹ and 4310 M⁻¹ s⁻¹ and 4320 M⁻¹ s⁻¹ and 4400 M⁻¹ s⁻¹ and 4290 M⁻¹ s⁻¹ and 4340 M⁻¹ s⁻¹ and 4360 M⁻¹ s⁻¹
- Kd (SPCH; SPCH loaded on Anti-GST sensor, fit per sensor, Stomid Conc. (µM) 200-3.12, rep-1, rep-2, read-out: KD): 75.4 µM and 76.8 µM and 74.1 µM and 73.1 µM and 74.8 µM and 72.6 µM and 75.2 µM and 76.7 µM and 76.9 µM and 74.4 µM
- RMax (SPCH; [1]): 0.03 and 0.0213
- Req/Rmax(%) (SPCH; [1]): 100%
- Response (SPCH; [1]): 0.0312 and 0.0213
- RMax (SPCH; [2]): 0.062 and 0.0321
- Req/Rmax(%) (SPCH; [2]): 97% and 100%
- Response (SPCH; [2]): 0.0608 and 0.0321
- RMax (SPCH; [3]): 0.067 and 0.0781
- Response (SPCH; [3]): 0.065 and 0.0781
- RMax (SPCH; [4]): 0.135 and 0.1621
- Req/Rmax(%) (SPCH; [4]): 89%
- Response (SPCH; [4]): 0.1334 and 0.1621
- RMax (SPCH; [5]): 0.235 and 0.2711
- Response (SPCH; [5]): 0.233 and 0.2711
- RMax (SPCH; [6]): 0.335 and 0.323
- Req/Rmax(%) (SPCH; [6]): 98%
- Response (SPCH; [6]): 0.3311 and 0.323
- koff (SPCH; read-out: kdis(1/s), SPCH loaded on Anti-GST sensor, fit per sensor, Stomid Conc. (mM) 200-3.12, rep-1, rep-2): 0.329 s⁻¹
- kon (SPCH; read-out: kon(1/Ms), SPCH loaded on Anti-GST sensor, fit per sensor, Stomid Conc. (mM) 200-3.12, rep-1, rep-2): 4370 M⁻¹ s⁻¹
- Kd (MUTE; BLI steady state, MUTE, read-out: KD (SS)): 0.0089 ± 0.0012 mM
- kdis (MUTE; MUTE loaded on Anti-GST sensor, fit per sensor, Stomid Conc. 200-3.12, rep-1, rep-2): 0.0392 s⁻¹ and 0.0391 s⁻¹
- Kd (MUTE; MUTE loaded on Anti-GST sensor, fit per sensor, Stomid Conc. (mM) 200-3.12, rep-1, rep-2, read-out: KD): 0.00896 mM and 0.00929 mM and 0.00909 mM and 0.0092 mM and 0.00905 mM and 0.00911 mM and 0.0091 mM and 0.00897 mM and 0.00907 mM and 0.00902 mM and 0.00906 mM
- RMax (MUTE; MUTE, Conc. 3.12, rep-1, rep-2): 0.125 and 0.165
- Req/Rmax(%) (MUTE; MUTE, Conc. 3.12, rep-1, rep-2): 100%
- Response (MUTE; MUTE, Conc. 3.12, rep-1, rep-2): 0.1223 and 0.1634
- RMax (MUTE; MUTE, Conc. 6.25, rep-1, rep-2): 0.275 and 0.215
- Req/Rmax(%) (MUTE; MUTE, Conc. 6.25, rep-1, rep-2): 97% and 100%
- Response (MUTE; MUTE, Conc. 6.25, rep-1, rep-2): 0.2732 and 0.2105
- RMax (MUTE; MUTE, Conc. 12.5, rep-1, rep-2): 0.425 and 0.395
- Response (MUTE; MUTE, Conc. 12.5, rep-1, rep-2): 0.4108 and 0.3912
- RMax (MUTE; MUTE, Conc. 25, rep-1, rep-2): 0.525 and 0.47
- Response (MUTE; MUTE, Conc. 25, rep-1, rep-2): 0.5211 and 0.4645
- RMax (MUTE; MUTE, Conc. 50, rep-1, rep-2): 0.55 and 0.585
- Req/Rmax(%) (MUTE; MUTE, Conc. 50, rep-1, rep-2): 89%
- Response (MUTE; MUTE, Conc. 50, rep-1, rep-2): 0.5313 and 0.5832
- RMax (MUTE; MUTE, Conc. 100, rep-1, rep-2): 0.605 and 0.635
- Response (MUTE; MUTE, Conc. 100, rep-1, rep-2): 0.5932 and 0.6302
- RMax (MUTE; MUTE, Conc. 200, rep-1, rep-2): 0.615 and 0.645
- Req/Rmax(%) (MUTE; MUTE, Conc. 200, rep-1, rep-2): 98%
- Response (MUTE; MUTE, Conc. 200, rep-1, rep-2): 0.606 and 0.634
- koff (MUTE; read-out: kdis(1/s), MUTE loaded on Anti-GST sensor, fit per sensor, Stomid Conc. 200-3.12, rep-1, rep-2): 0.0393 s⁻¹
- kon (MUTE; read-out: kon(1/Ms), MUTE loaded on Anti-GST sensor, fit per sensor, Stomid Conc. 200-3.12, rep-1, rep-2): 4380 M⁻¹ s⁻¹
